Experimental findings from ChEMBL document CHEMBL1141597, “2-Alkyl-4-aryl-pyrimidine fused heterocycles as selective 5-HT2A antagonists” (Bioorg Med Chem Lett, 2008) are described below.

In experiment [1] the target is T1, 5-hydroxytryptamine receptor 2C (Homo sapiens, UniProt P28335).
T1 sequence (P28335 whole entry): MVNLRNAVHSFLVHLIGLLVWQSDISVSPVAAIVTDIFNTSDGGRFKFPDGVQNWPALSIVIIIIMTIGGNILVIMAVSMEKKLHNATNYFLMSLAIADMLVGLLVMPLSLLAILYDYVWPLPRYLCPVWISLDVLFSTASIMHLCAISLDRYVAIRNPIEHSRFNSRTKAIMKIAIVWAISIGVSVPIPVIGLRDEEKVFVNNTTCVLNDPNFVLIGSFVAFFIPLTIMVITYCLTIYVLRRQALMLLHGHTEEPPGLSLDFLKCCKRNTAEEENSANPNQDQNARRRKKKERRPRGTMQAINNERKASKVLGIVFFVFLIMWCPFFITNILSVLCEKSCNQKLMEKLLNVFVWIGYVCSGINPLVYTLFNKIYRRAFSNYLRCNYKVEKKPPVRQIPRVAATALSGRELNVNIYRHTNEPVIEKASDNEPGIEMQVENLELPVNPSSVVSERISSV
Put plainly: Displacement of [3H]mesulergine from human recombinant 5HT2C receptor expressed in CHO cells. The experiment is classed as cell-based.

Experiment [2] addresses T2, 5-hydroxytryptamine receptor 2B (Homo sapiens, UniProt P41595). Put plainly: Displacement of [3H]mesulergine from human recombinant 5HT2B receptor expressed in CHO cells. It is filed as cell-based. (In a radioligand displacement assay an active substance lowers the binding of a labelled ligand.)
Experiment [3] concerns the target T3, 5-hydroxytryptamine receptor 2A (Homo sapiens, UniProt P28223). Put plainly: Displacement of [3H]ketanserin from human recombinant 5HT2A receptor expressed in mouse NIH3T3 cells. It is filed as cell-based.
The target in experiment [4] is T2, 5-hydroxytryptamine receptor 2B. Put plainly: Antagonist activity at human recombinant 5HT2B receptor expressed in CHO cells assessed as increase in calcium levels. It is filed as functional, cell-based.
The target in experiment [5] is T3, 5-hydroxytryptamine receptor 2A. To be noted: NIH3T3.
Description: Antagonist activity at human recombinant 5HT2A receptor expressed in mouse NIH3T3 cells assessed as increase in calcium levels
Experiment [6] deals with T2, 5-hydroxytryptamine receptor 2B. Put plainly: Binding affinity at 5HT2B receptor.
For experiment [7], the target named is T1, 5-hydroxytryptamine receptor 2C. Put plainly: Binding affinity at 5HT2C receptor.
In experiment [8] the target is T3, 5-hydroxytryptamine receptor 2A. Put plainly: Binding affinity at 5HT2A receptor.

Structures are written as SMILES. Calls of active or inactive are those of the source. The rule behind the calls is not given here.

T2 sequence (P41595 whole entry): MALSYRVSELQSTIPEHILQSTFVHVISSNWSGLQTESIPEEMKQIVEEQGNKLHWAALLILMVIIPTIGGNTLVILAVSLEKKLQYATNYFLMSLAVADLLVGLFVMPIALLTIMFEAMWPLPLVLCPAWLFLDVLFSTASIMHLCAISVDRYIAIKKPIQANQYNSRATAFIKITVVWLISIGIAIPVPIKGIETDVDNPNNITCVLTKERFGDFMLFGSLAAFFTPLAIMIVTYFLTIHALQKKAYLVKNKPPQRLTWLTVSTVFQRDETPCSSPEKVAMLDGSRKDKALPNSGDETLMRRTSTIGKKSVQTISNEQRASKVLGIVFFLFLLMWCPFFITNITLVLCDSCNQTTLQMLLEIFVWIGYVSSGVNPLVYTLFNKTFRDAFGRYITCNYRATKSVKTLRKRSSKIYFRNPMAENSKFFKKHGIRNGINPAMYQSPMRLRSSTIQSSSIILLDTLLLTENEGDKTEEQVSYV
T3 sequence (P28223 whole entry): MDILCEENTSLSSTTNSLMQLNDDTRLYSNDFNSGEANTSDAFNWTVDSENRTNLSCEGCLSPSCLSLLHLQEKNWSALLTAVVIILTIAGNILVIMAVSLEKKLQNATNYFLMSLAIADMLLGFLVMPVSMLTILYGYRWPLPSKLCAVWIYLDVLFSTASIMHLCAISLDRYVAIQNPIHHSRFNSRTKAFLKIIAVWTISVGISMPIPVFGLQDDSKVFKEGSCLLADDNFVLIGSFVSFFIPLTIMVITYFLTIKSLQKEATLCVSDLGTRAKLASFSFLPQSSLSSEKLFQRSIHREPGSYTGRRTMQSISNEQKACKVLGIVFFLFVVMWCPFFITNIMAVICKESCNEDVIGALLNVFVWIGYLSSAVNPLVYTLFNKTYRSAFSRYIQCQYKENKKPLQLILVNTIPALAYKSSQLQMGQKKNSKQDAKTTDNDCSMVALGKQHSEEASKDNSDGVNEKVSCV

Take `N#Cc1ccc(-c2nc(C3CCCC3)nc3c2CCNCC3)cc1`: the inhibition constant (Ki) in experiment [1] was found to be 460 nM; in experiment [2], 20 nM; in experiment [3] it was 34 nM.
On to `Fc1ccc(-c2nc(-c3ccccc3)nc3c2CNCC3)cc1`, for which the inhibition constant Ki in experiment [3] was 50 nM.
For `Fc1ccc(-c2nc(Cc3ccccc3)nc3c2CCNC3)cc1`, the results for the Ki in experiment [2] and in experiment [3] were 310 nM and 9 nM, respectively.
In the case of `Cc1nc2n(c(=O)c1CCN1CCC(c3noc4cc(F)ccc34)CC1)CCCC2`, in experiment [4], the result was inactive.
On to `Fc1ccc(-c2nc(C3CCCC3)nc3c2CCNCC3)cc1`, for which the Ki in experiment [3] was determined as 13 nM.
Consider `Fc1ccc(-c2nc(Cc3ccccc3)nc3c2CNCC3)cc1`, for which the inhibition constant (Ki) in experiment [1] amounted to 400 nM; in experiment [2] it was 2500 nM; in experiment [3], 20 nM.
In the case of `Fc1ccc(-c2nc(C3CC3)nc3c2CNCC3)cc1`, the values for the Ki in experiment [1] and in experiment [3] were 5000 nM and 40 nM, respectively.
Regarding `CC(C)(C)c1nc2c(c(-c3ccc(F)cc3)n1)CNCC2`, the figures for the Ki in experiment [1] and in experiment [3] were 100 nM and 5 nM, respectively.
As for `FC(F)(F)c1ccc(-c2nc(Cc3ccccc3)nc3c2CCNCC3)cc1`, in experiment [3], the inhibitory constant (Ki) was determined as 0.8 nM.
Consider `Cc1nc2sccn2c(=O)c1CCN1CCC(=C(c2ccc(F)cc2)c2ccc(F)cc2)CC1`, for which the outcome in experiment [4] was inactive.
Take `Fc1ccc(-c2nc(Cc3ccccc3)nc3c2CCCNC3)cc1`: the inhibition constant (Ki) in experiment [1] was 150 nM; in experiment [3] it was 8.8 nM.
On to `COc1ccc(-c2nc(C3CCCC3)nc3c2CCNCC3)cc1`, for which the Ki in experiment [1] came to 120 nM; in experiment [2], 4.8 nM; in experiment [3], 11 nM.
Consider `Cc1nc2c(c(-c3ccc(Cl)cc3)n1)CCNCC2`, for which the Ki worked out at 5000 nM in experiment [1], 270 nM in experiment [2] and 1200 nM in experiment [3].
In the case of `Cc1ccc(-c2nc(C3CCCC3)nc3c2CCNCC3)cc1`, the inhibition constant (Ki) in experiment [1] was 23 nM.
For the compound `Fc1ccc(Cc2nc3c(c(-c4ccc(F)cc4)n2)CNCC3)cc1`, in experiment [5], the pKb was determined as 7.1. Further, the Ki in experiment [3] amounted to 13 nM. Also, the result in experiment [4] was inactive.
Take `COc1cccc(C(O)C2CCN(CCc3ccc(F)cc3)CC2)c1OC` (single isomer, unassigned): the outcome in experiment [4] was inactive.
The compound `Fc1ccc(Cc2nc3c(c(-c4ccc(F)cc4)n2)CCNCC3)cc1` returned a negative-log Kb (pKb) in experiment [5] of 8.2. For the same compound, the Ki in experiment [3] came out at 0.7 nM. Also, the result in experiment [4] was inactive.
On to `Fc1ccc(-c2nc(C3CCC3)nc3c2CNCC3)cc1`, for which the figures for the inhibition constant Ki in experiment [1], in experiment [2] and in experiment [3] were 410 nM, 210 nM and 11 nM, respectively.
As to `CCN(CC)c1nc2c(c(-c3ccc(C)cc3)n1)CNCC2`, the inhibitory constant (Ki) in experiment [6] is 70 nM; in experiment [7] it was 300 nM; in experiment [8], 20 nM.
`CC(C)c1nc2c(c(-c3ccc(F)cc3)n1)CCNCC2`: in experiment [3], the Ki amounted to 4 nM.
Consider `CN(C)CCO/N=C(/C=C/c1ccc(O)cc1)c1ccccc1F`, for which the result in experiment [4] was inactive.
As for `Cc1ccc(-c2nc(Cc3ccccc3)nc3c2CCNCC3)cc1`, the inhibitory constant (Ki) stood at 15 nM in experiment [1] and 0.4 nM in experiment [3].
Turning to `Fc1ccc(-c2nc(Cc3ccccc3)nc3c2CNCCC3)cc1`, the inhibition constant (Ki) in experiment [1] stood at 5000 nM; in experiment [2] it was 10000 nM.
Regarding `Fc1ccc(-c2nc(Cc3ccccc3)nc3c2CCNCC3)cc1`, in experiment [3], the Ki worked out at 0.6 nM.
The compound `Fc1ccc(-c2nc(C3CCCC3)nc3c2CNCC3)cc1` had a pKb in experiment [5] of 8.1. For the same compound, the Ki in experiment [1] came out at 110 nM; in experiment [2], 220 nM; in experiment [3], 2.2 nM. In addition, in experiment [4], the result was inactive.

As a reminder, the Ki is the dissociation constant of the complex between target and ligand, obtained from inhibition or displacement. For orientation: pKb means the negative decadic logarithm of the Kb, by convention in mol/L.
